{"source": "patent US20150224177A1", "about": "(priority 2014, published 2015)", "key": {"B. pseudomallei isolates": {"test_system": "B. pseudomallei isolates", "test": "microbe, parasite or virus in culture", "format": "cell-based, Burkholderia pseudomallei"}, "[1]": {"test_system": "B. pseudomallei strains 1026b and MSHR 305", "format": "cell-based, Burkholderia pseudomallei"}, "Bacillus anthracis": {"test_system": "Bacillus anthracis", "format": "cell-based"}, "Burkholderia mallei": {"test_system": "Burkholderia mallei", "test": "microbe, parasite or virus in culture", "format": "cell-based", "settings": "for MIC: Burkholderia mallei"}, "Yersinia pestis": {"test_system": "Yersinia pestis", "test": "microbe, parasite or virus in culture", "format": "cell-based", "settings": "for MIC: Yersinia pestis"}, "[2]": {"settings": "read-out: MIC values (limit of detection) for OSCN^− with and without bLF"}, "[3]": {"settings": "read-out: Minimal Inhibitory Concentration"}}, "note": "Where two headings read alike, the source gives them in different places."}
{"compound": "N#CSO", "note": "[OSCN^−, hypothiocyanite]", "values": [{"measurement": "concentration of OSCN^− alone that inhibited all isolates", "setting": "B. pseudomallei isolates", "result": "less than 63.3 μg/mL"}, {"measurement": "inhibition of growth, overall result in words", "setting": "B. pseudomallei isolates", "result": "effective in vitro to inhibit the growth"}, {"measurement": "MIC", "setting": "B. pseudomallei isolates; Burkholderia pseudomallei, NCTC13392, read-out: Minimal Inhibitory Concentration", "result": "48.7 to 61.2", "unit": "µg/mL"}, {"measurement": "bacterial counts (limit of detection) through 6 h post inoculation", "setting": "[1]", "result": "< 33", "unit": "CFU/mL"}, {"measurement": "bactericidal effect, overall result in words", "setting": "[1]", "result": "substantial bactericidal effect"}, {"measurement": "detectable CFUs from T2h to T6h", "setting": "[1]", "result": "no detectable CFUs"}, {"measurement": "growth at T24h", "setting": "[1]", "result": "no MSHR 305 growth was detected"}, {"measurement": "kill curve: evolution of microbial load during time", "setting": "[1]", "result": "immediate decrease of microbial load after 2 hours"}, {"measurement": "reduction at T24h as compared with the untreated controls", "setting": "[1]", "result": "1.5 to 2", "unit": "log10"}, {"measurement": "reduction at T24h compared with the untreated control", "setting": "[1]", "result": "~2.5", "unit": "log10"}, {"measurement": "reduction of final bacterial concentration at T24h as compared with the untreated controls", "setting": "[1]", "result": "at least 1.5 log10"}, {"measurement": "inhibition of growth, result in words", "setting": "Bacillus anthracis", "result": "MICs at or below the detection limit"}, {"measurement": "inhibition of growth, result in words", "setting": "Burkholderia mallei", "result": "very effective against both strains tested"}, {"measurement": "MIC", "setting": "Burkholderia mallei; [2]", "result": "≤ 25.9", "unit": "µg/mL"}, {"measurement": "MIC", "setting": "Burkholderia mallei; [3]", "result": "≤ 25.9", "unit": "µg/mL"}, {"measurement": "inhibition of growth, result in words", "setting": "Yersinia pestis", "result": "very effective against both strains tested"}, {"measurement": "MIC", "setting": "Yersinia pestis; [2]", "result": "≤ 30.3", "unit": "µg/mL"}, {"measurement": "MIC", "setting": "Yersinia pestis; [3]", "result": "≤ 30.3", "unit": "µg/mL"}]}
